Legend:
[1] = system: U2OS cells; assay: Circadian phase control in U2OS reporter cells; type: cell-based, human
Text: Hypothetically, a transient change in period will lead to a phase change, consequently providing a relevant approach to jetlag treatment. Therefore, we applied visible-light responsive modulator 9 to control the circadian phase (Fig. 7). The compound was initially irradiated with green light for inactivation (cis-enriched 9, Fig. 7a, timepoint A) and applied to U2OS cells for luminescence rhythm measurement. On the next day, the cells were irradiated with violet light for compound activation or kept in dark (Fig. 7a, timepoint B).
Fig. 7 Circadian phase control using chronophotopharmacology. Green light (λmax = 530 nm)-irradiated compound 9 was applied to U2OS cells at 0 h (A). On the next day (B), the cells were irradiated with violet light (λmax = 400 nm) for 0 min (black and green lines), 10 min (light violet line), or 20 min (dark violet line). After 48 h or 72 h (C), the cells were irradiated with green light (λmax = 530 nm) for 0 min (black line) or 30 min (green, light violet, and dark violet lines). Luminescence rhythm profiles (average of n = 6) are shown in a. […] Luminescence is given in arbitrary units. n = 6 biologically independent samples. […]
Stable U2OS reporter cells harboring Bmal1-dLuc reporter were suspended in phenol red-free culture medium [DMEM (D2902, Sigma) supplemented with 10% fetal bovine serum, 3.5 mg/mL D-glucose, 3.7 mg/mL sodium bicarbonate, 0.29 mg/mL L-glutamine, 100 units/mL penicillin, and 100 µg/mL streptomycin] and plated onto a white, solid-bottom 384-well plates at 30 µL (3000 cells) per well. […] Luminescence was recorded every 100 min in a microplate reader, Infinite M200Pro (Tecan). For the phase control experiments, cellular light irradiation was performed in a dark 32 °C room and luminescence was recorded in a microplate reader Synergy H1 (BioTek) placed in the same room, to avoid possible effect of transient temperature change on the phase. Circadian period and phase were determined from luminescence rhythms by a curve fitting program MultiCycle (Actimetrics). […]

[2] = system: SCN explants; assay: Ex vivo circadian period, SCN explants of Per2::Luc knock-in mice; design: species or system mouse; settings: 18 µM
Experimental: Next, we applied the light-dependent period control to the tissue level using explants of Per2::Luc knock-in reporter mice. The mice express PER2-luciferase fusion protein under control of the endogenous Per2 promoter. […] The spleen explants were treated with thermally adapted trans-9, then irradiated with green light (λmax = 530 nm) or kept in dark, and luminescence rhythms were measured (Fig. 6a, b). […] In addition to the peripheral clock in spleen, we investigated the effect of compound 9 on the central clock in the hypothalamic suprachiasmatic nucleus (SCN) that controls behavioral rhythms. […]
Fig. 6 Ex vivo photo-modulation of the circadian period in mouse tissue explants. a–c The spleen explants of the Per2::Luc knock-in reporter mice were applied with 12 µM compound 9 and irradiated with green light (λmax = 530 nm) for 0 min (dark, black) or 30 min (green). Luminescence rhythms were then monitored and shown in a (mean of n = 5 for dark and n = 6 for green light). […] Luminescence is given in arbitrary units. n = 5 biologically independent samples for dark and n = 6 for green light. […] Luminescence rhythms of a representative sample for each condition are shown in d. […]
To harvest the suprachiasmatic nucleus (SCN), Per2::Luc heterozygote neonatal mice at postnatal day four to seven were euthanized. […] Circadian period was calculated by a cosine curve fitting. […]

CC(C)n1cnc2c(NCc3ccc(F)c(/N=N/c4c(F)cccc4F)c3F)ncnc21 [Compound 9]
period after green light reversal ([1]; after time point C): returned to normal
phase delay compared with dark samples, 48 h condition ([1]; violet light activation, reversed by green light after 48 h): 2 h
phase delay compared with dark samples, 72 h condition ([1]; violet light activation, reversed by green light after 72 h): 4 h
period effect of thermally adapted compound ([2]; applied on day 4): induced period lengthening
period effect upon green light irradiation ([2]; green light on day 8): reduced
